The structures appear in SMILES notation. Inconclusive results are not listed. Calls of active or inactive are those of the source.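 Rule for the calls: active = compound lowering the normal-ribosome reporter at least twice as much as the humanized-ribosome reporter, growth loss under a set limit; inconclusive = no clear call, values can overlap the other calls; inactive = the rest.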

94 compounds from PubChem BioAssay AID977628 (Broad Institute, 2014) can be followed below.

One assay relates to E. coli WT GFP strain growth, fluorescence, 24 h. The assay is described as follows: E. coli growth inhibition, wild-type GFP versus h24 humanized RFP strain, dose response, h24 mutant RFP vs wild-type GFP, cherry-pick (AID 977628).
For the compound `Cc1cc(C(=O)NCCC2=CCCCC2)ccc1[N+](=O)[O-]`, the AC50 (as a rule, the midpoint of the concentration-response curve, whichever way the signal moves) is > 100 µM (inactive).

For `CCN(C(=O)COC(=O)c1ccc([N+](=O)[O-])o1)c1cccc2ccccc12`, the AC50 was > 100 µM (inactive). The same measure, in the same setting: for `O=C(Nc1ccc2nc(-c3ccccc3)[nH]c2c1)c1cccs1` the value was > 100 µM (inactive). The same measure, in the same setting: the same measure for `CCOc1ccc(OCc2cccc(C(=O)O)c2)cc1`: > 100 µM (inactive); for `Cc1nn(C(C)(C)C)c(OC(=O)CC(C)C)c1S(=O)(=O)c1ccccc1`: > 100 µM (inactive). Same read-out and setting: for `Cc1ccccc1OCC(O)Cn1c(NCc2ccco2)nc2c1c(=O)n(C)c(=O)n2C` (centres undefined) the value was > 100 µM (inactive); for `CC(C)(C)c1ccc(N2C(=O)CSC2c2cccnc2)cc1` (centres undefined), > 100 µM (inactive); for `COc1cccc(NC(=O)c2ccc(-c3ccc([N+](=O)[O-])cc3)o2)c1`, > 100 µM (inactive). Turning to `O=C(Nc1cccc(-c2cn3ccccc3n2)c1)c1ccccc1`, the AC50 is > 100 µM (inactive). On the same count and under the same terms, for `Cc1cccc(CN2C(=O)c3ccccc3Sc3ccc(C(=O)O)cc32)c1` the value was > 100 µM (inactive); for `c1ccc(SCc2nc3ccccc3s2)nc1`, > 100 µM (inactive); for `CCn1nnc(NC(=O)c2ccc([N+](=O)[O-])o2)n1`, > 100 µM (inactive). Consider `Cc1ccc(Cl)cc1N1CCN(C(=O)c2ccc3nc[nH]c3c2)CC1`, for which the AC50 is > 100 µM (inactive).

In the case of `O=C1NC(CCc2ccccc2)C(=O)N1Cc1cccc2ccccc12` (centres undefined), the AC50 was > 100 µM (inactive). Same read-out and setting: for `CC(CCC(=O)O)C1CC[C@@]2(C)C3C(=O)CC4C(C)(C)C(O)CC[C@]4(C)C3C(=O)C[C@]12C` (some centres undefined) the value was > 100 µM (inactive); for `CC1(C(=O)NS(=O)(=O)c2cccs2)CCN1C(=O)C1(c2ccc(Cl)cc2)CCC1` (centres undefined), > 100 µM (inactive). Still for that read-out and setting: for `CCn1nc(Cc2cccc3ccccc23)c(C#N)c1N` the value was > 100 µM (inactive); for `COc1ccccc1NC(=O)CSc1nccn1Cc1ccc(F)cc1`, > 100 µM (inactive); for `COc1ccc(-c2cc(C(=O)N3CCc4ccccc4C3)no2)cc1`, > 100 µM (inactive). With `CCC(=O)Nc1nc2ccc(NC(=O)c3cc(OC)c(OC)c(OC)c3)cc2s1`, the AC50 was > 100 µM (inactive).

Consider `CN(C)CCN(C(=O)c1ccc2c(c1)CCCC2)c1nc2c(F)cccc2s1`, for which the AC50 was > 100 µM (inactive). For `COc1ccc(NC(=O)CN(C)C(=O)c2cc(C3CC3)nn2-c2ccccc2)cc1`, the AC50 is > 100 µM (inactive). On the same count and under the same terms, for `CCOC(=O)c1cnc2c(cnn2C)c1NCc1ccc(OC)cc1` the value was > 100 µM (inactive). The same measure, in the same setting: the same measure for `CCCCCCCNC(=O)c1ccc(N2CCC3(CC2)OCCO3)c([N+](=O)[O-])c1`: > 100 µM (inactive); for `CC(=O)OC1N=C(c2ccccc2Cl)c2cc(Br)ccc2NC1=O` (centres undefined): > 100 µM (inactive); for `Cc1cc(C)c(S(=O)(=O)NCCOc2ccccc2)c(C)c1-n1cnnn1`: > 100 µM (inactive).

As for `O=C(NCc1cccnc1)c1ccc(COc2ccc3c(c2)CCC3)o1`, the AC50 is > 100 µM (inactive).

Another assay relates to E. coli mixed WT/h24 culture total growth, OD600, 24 h. Described as above.
In the case of `COC(=O)c1sc(C(C)(C)C)cc1CS(=O)(=O)c1ccc(Cl)cc1`, the AC50 is above 100 µM. The same measure, in the same setting: for `COc1cccc(-c2ccc(NC(=O)C3CCCN(Cc4cnn(C(C)C)c4)C3)cc2)c1` (centres undefined) the value was above 100 µM; for `CCCCc1cc2c(cc1NC(=O)CN1CCCCC1)OCCO2`, above 100 µM. The same measure, in the same setting: for `Cc1nn2c(NCc3ccccn3)cc(C(C)C)nc2c1-c1ccccc1` the value was above 100 µM; for `COc1ccccc1C1CCN(C(=O)c2cccs2)CC1`, above 100 µM; for `COC(=O)c1ccc(OCC(=O)c2ccccc2OC)cc1`, above 100 µM. `CCOC(=O)CN1C(=O)C(CC)Oc2ccc(Cl)cc21` (centres undefined) showed an AC50 above 100 µM. Still for that read-out and setting: the same measure for `O=C1OC[C@@H]2CCCN2C(=O)[C@@H](CC(=O)N(CCO)Cc2ccccc2)C/C=C\C[C@H]1Cc1ccc(F)cc1`: above 100 µM; for `CC1CCC2(CC1)SCC(=O)N2c1ccc(F)cc1` (centres undefined): above 100 µM.

As to `Cc1cc(C)c(OCCN(C)Cc2ccccc2)c(Br)c1`, the AC50 was above 100 µM. Turning to `S=c1nc(-c2cccc(Br)c2)[nH][nH]1`, the AC50 is above 100 µM. Still for that read-out and setting: the same measure for `COc1cc(CCN(C(=O)c2cc3ccccc3[nH]2)C(c2ccccn2)c2nc3ccccc3[nH]2)cc(OC)c1` (centres undefined): above 100 µM.

Regarding `CC(C)(C)CC(=O)Nc1ccccc1N1CCN(c2ccccc2)CC1`, the AC50 is above 100 µM. Same read-out and setting: the same measure for `O=C(c1sc2ccccc2c1Cl)N1CCC2(CC1)OCCO2`: above 100 µM; for `CCN(CC)CC(=O)Nc1sc2c(c1C(=O)c1ccccc1OC)CCC2`: above 100 µM; for `CCOC(=O)Cc1nnc(NC(=O)CSc2nc3ccccc3[nH]2)s1`: above 100 µM. In turn, `Brc1ccccc1Cn1c(-c2cncs2)nc2ccccc21` returned an AC50 above 100 µM. Still for that read-out and setting: for `O=C1OCCC1Sc1nc2ccccc2c(=O)n1Cc1ccccc1` (centres undefined) the value was above 100 µM.

On to `Cc1ccc(OCCCC(=O)NC(C)c2ccccc2)c(C)c1` (centres undefined), for which the AC50 was above 100 µM. The same measure, in the same setting: for `O=C(CSCc1c(Cl)cccc1Cl)NCc1ccccn1` the value was above 100 µM; for `Cc1ccn2cc(-c3cccc(NC(=O)c4cccs4)c3)nc2c1`, above 100 µM. The same measure, in the same setting: for `O=C(Nc1ccc(Cl)cn1)c1ccc([N+](=O)[O-])o1` the value was above 100 µM; for `O=C(C[n+]1ccn(-c2ccccc2)c1)c1ccc([N+](=O)[O-])cc1`, above 100 µM; for `CCN(C(=O)COC(=O)CCc1ccccc1)c1ccccc1`, above 100 µM. Same read-out and setting: the same measure for `O=C(Nc1nc2ccccc2n1CCN1CCOCC1)c1ccccc1`: above 100 µM; for `CC(C)Oc1nc(-c2ccccc2Cl)nc2ccccc12`: above 100 µM. As to `CN(CCOc1ccccc1)S(=O)(=O)c1ccccc1C#N`, the AC50 was above 100 µM.

For the compound `CC(=O)c1ccc(OCC(=O)Nc2ccc3c(c2)CCC3)cc1`, the AC50 is above 100 µM. Still for that read-out and setting: the same measure for `COCC#Cc1ccc2c(c1)O[C@H](CN(C)C(=O)c1ccccc1)[C@@H](C)CN([C@H](C)CO)S2(=O)=O`: above 100 µM; for `Cc1ccc(S(=O)(=O)N2CCCCC2C(=O)N2CCN(c3ccccc3F)CC2)cc1` (centres undefined): above 100 µM. Compound `COc1cc2c(cc1OC)CN(CC(=O)Nc1ccccc1SC)CC2` came in with an AC50 above 100 µM. Same read-out and setting: for `Cc1ccc(NC(=O)c2ccc([N+](=O)[O-])s2)cc1S(=O)(=O)N1CCOCC1` the value was above 100 µM. Still for that read-out and setting: for `COc1ccc(NC(=O)c2cccs2)cc1C(=O)N1CCN(c2ccccc2)CC1` the value was above 100 µM; for `CC(NC(=O)C12CC3CC(C)(CC(C)(C3)C1)C2)c1ccncc1` (centres undefined), above 100 µM; for `Cc1cc(C)c(OCC(=O)OCC(=O)N2CCc3ccccc3C2)c(C)c1`, above 100 µM. `O=C1c2ccccc2CSc2c(O)cccc21` returned an AC50 above 100 µM. The same measure, in the same setting: for `O=C(COC(=O)CCC(=O)c1ccc(F)cc1)Nc1cccc(S(=O)(=O)N2CCCC2)c1` the value was above 100 µM; for `COc1ccc(C(=O)NCCC2=CCCCC2)cc1[N+](=O)[O-]`, above 100 µM.

Turning to `Cc1cccc(SCC(=O)Nc2ccccc2[N+](=O)[O-])c1`, the AC50 is above 100 µM. The same measure, in the same setting: for `CCCn1c(C(C)Nc2nc(-c3ccc(C)cc3)cs2)nc2ccccc21` (centres undefined) the value was above 100 µM; for `CCN(CC)S(=O)(=O)c1ccc(N2CCCC2)c(NC(=O)c2ccccc2OC)c1`, above 100 µM. On to `COc1ccc2c(c1)-c1nc(N)sc1CC2`, for which the AC50 is above 100 µM. On the same count and under the same terms, for `c1ccc(Nc2ccc3ccccc3c2)cc1` the value was above 100 µM. On the same count and under the same terms, for `CN(C)S(=O)(=O)c1ccc(Cl)c(C(=O)OCC(=O)NC(=O)c2cccn2C)c1` the value was above 100 µM; for `COc1ccc(CNC(=O)c2nc(S(=O)(=O)Cc3ccccc3)ncc2Cl)cc1`, above 100 µM.

Compound `COc1ccc(-c2csc(NC(=O)c3ccoc3C)n2)cc1` had an AC50 above 100 µM. On the same count and under the same terms, for `COc1cc(OC)c(NS(=O)(=O)c2cccc(C(=O)OCC(=O)NCC3CCCO3)c2)cc1Cl` (centres undefined) the value was above 100 µM; for `Cc1ccsc1C(=O)C1CCCN(Cc2cc(F)ccc2-n2cccn2)C1` (centres undefined), above 100 µM; for `CC(=O)NCCOc1nc(N2CCCCC2)nc(N2CCCCC2)n1`, above 100 µM. Still for that read-out and setting: the same measure for `Cc1ccc(NC(=O)C2CCN(S(=O)(=O)c3ccc4c(c3)NC(=O)CO4)CC2)cc1`: above 100 µM; for `CC(C)n1nnnc1C1c2ccccc2C(=O)N1CCOc1ccccc1` (centres undefined): above 100 µM. On the same count and under the same terms, the same measure for `Cc1cc(C(C)(C)C)oc1C(=O)N(CC(=O)NC1CCCC1)c1c(C)cccc1C`: above 100 µM; for `O=C(NC1CCCCC1)C(c1cccc2ccccc12)n1c(=O)c(-c2ccco2)nc2ccccc21` (centres undefined): above 100 µM; for `COCc1c(C#N)c(NCCc2ccc(F)cc2)nc(C)c1[N+](=O)[O-]`: above 100 µM.

`COc1ccc(OC)c(S(=O)(=O)Nc2cccc3ccc(O)cc23)c1`: the AC50 is above 100 µM. The same measure, in the same setting: the same measure for `CCOC(=O)c1c(C)[nH]c(C)c1S(=O)(=O)NCCN1CCN(c2ccccc2F)CC1`: above 100 µM. As to `Cc1cccc(N2CCN(Cc3nc(-c4ccc(F)cc4F)oc3C)CC2)n1`, the AC50 was above 100 µM. `COc1ccc(C(=O)C[n+]2ccc3c(c2)nc(-c2cc(OC)c(OC)cc2OC)n3C)cc1` yielded an AC50 above 100 µM. The same measure, in the same setting: the same measure for `COc1ccc(CC(=O)Oc2ccc(C)cc2C)cc1`: above 100 µM; for `Cc1cccc(NC(=O)c2c(C)nn(-c3ccccc3)c2Cl)c1`: above 100 µM. `CN(C)CCNc1ncnc2c1sc1nc(N3CCCC3)c3c(c12)CC(C)(C)OC3` gave an AC50 above 100 µM. Still for that read-out and setting: the same measure for `O=C(Cc1ccc(Br)cc1)Nc1cccc(-c2cn3c(n2)SCC3)c1`: above 100 µM. Regarding `COc1ccc(NC(=O)Nc2cccc3c2O[C@H](CN(C)S(=O)(=O)c2ccc(Cl)cc2)[C@@H](C)CN([C@@H](C)CO)C3=O)cc1`, the AC50 is above 100 µM. On the same count and under the same terms, for `Cc1ccc(S(=O)(=O)NCc2c(-c3ccccc3)noc2C)cc1` the value was above 100 µM; for `Cc1cccc(C)c1NC(=O)CNC(=O)C(C)N1CCN(c2cccc(Cl)c2)CC1` (centres undefined), above 100 µM; for `COc1ccccc1N1CCN(Cc2ccc(OC)c3ccccc23)CC1`, above 100 µM. Same read-out and setting: for `CC1CCCC(NC(=O)COC(=O)Cc2c[nH]c3ccccc23)C1C` (centres undefined) the value was above 100 µM.
